# Test results as given in publication PMC2990587, “Central nervous system penetration and enhancement of temozolomide activity in childhood medulloblastoma models by poly(ADP-ribose) polymerase inhibitor AG-014699” (British Journal of Cancer, 2010).
# Entries after “also recorded” stand apart in the source; their conditions may differ.
# Tests used:
# [1] = AG-014447 distribution in plasma, brain and D283Med xenograft of tumour-bearing mice (LC/MS/MS); assay type: in vivo, mouse; settings: for AUC in tumour: D283Med xenograft
# Procedure: One or four daily doses of PARP inhibitor AG-014699 (1 mg kg^−1 intraperitoneally (i.p.)) were given to CD-1 nude mice bearing established D283Med xenografts. At 0.5, 2, 6 and 24 h after the initial or fourth daily dose of AG-014699, three animals per time point were bled by cardiac puncture under general anaesthesia, and then killed. Plasma was separated from the blood samples using standard methods and stored at −80°C. The brains and tumours were removed, snap frozen in liquid nitrogen and stored at −80°C before analysis. Blood, tumour and brain tissue were removed from three untreated control animals and processed in the same way.
# AG-014699 is the phosphate salt of AG-014447 and rapidly liberates the parent drug following injection. The concentration of AG-014447 was determined in plasma and tissue homogenates (1 : 4 (w v^−1) in PBS) of brain and tumour after protein precipitation with acetonitrile by liquid chromatography/mass spectrometry/mass spectrometry using a turbo ion spray interface and multiple reaction monitoring in the positive ion mode (API 4000; Applied Biosystems, Warrington, Cheshire, UK) and a deuterated internal standard as described previously ([Plummer et al, 2008]). The lower limit of quantitation was 1 ng ml^−1. Plasma pharmacokinetics of AG-014447 were analysed using a non-compartmental approach in WinNonlin version 5.2.
# [2] = design: method as in Thomas et al, 2007; settings: ref Thomas et al, 2007; cited from earlier work
# D425Med cells = assay: XTT growth inhibition, D425Med; assay type: cell-based, human; settings: for GI50: D425Med, temozolomide alone, XTT, 3 days
# Procedure: (§1) Cell growth inhibition was estimated in exponentially growing D425Med, D283Med and D384Med cells in 96-well plates. Seeding densities of 1 × 10^3, 3 × 10^3 and 3 × 10^3 cells, respectively, ensured exponential growth for the duration of the experiment. At 24 h (D384Med) or 48 h (D283Med and D425Med) after seeding, cells were exposed to varying concentrations of temozolomide, as described in the Results, in the presence or absence of 0.4 μM AG-014699, a concentration previously shown to enhance temozolomide cytotoxicity in adult tumour cell lines ([Thomas et al, 2007]). After 3 days (D425Med and D384Med) or 5 days (D283Med) of culture (equivalent to approximately three cell divisions), the cell viability was quantified using an XTT cell proliferation kit assay (Roche, Mannheim, Germany), according to the manufacturer's instructions. Cell growth was expressed as a percentage in relation to DMSO or 0.4 μM AG-014699-alone controls. The concentration of temozolomide, alone or in combination with AG-014699, that inhibited growth by 50% (GI50) was calculated from computer-generated curves (GraphPad Software, San Diego, CA, USA). The potentiation factor50 (PF50) is defined as the ratio of […]. All data were from at least three independent experiments.
# D283Med cells = assay: XTT growth inhibition, D283Med; assay type: cell-based, human
# Procedure: as §1
# D384Med cells = assay: XTT growth inhibition, D384Med; assay type: cell-based, human; settings: Homo sapiens, D384 Med, 72 h; D384Med; temozolomide alone; XTT, 3 days
# Procedure: as §1
# D425Med xenografts = assay: Tumour growth inhibition in vivo, D425Med xenografts; design: species or system mouse
# From the text: (§2) All of the in vivo experiments were reviewed and approved by the relevant institutional animal welfare committees, and performed according to national law. Female athymic nude mice (CD1 nu/nu; Charles River, Margate, UK) used for anti-tumour studies were maintained and handled in isolators under specific pathogen-free conditions. […], […] and […] (1 × 10^7 exponentially growing cells per mouse, harvested and implanted in growth media) xenografts were established by sub-cutaneous implantation into CD-1 nude mice. […] Treatment was initiated when sufficient number of mice had established tumours to allow randomisation into treatment groups: day 17 for […], day 26 for […] and day 32 for […]. […] For drug combinations, AG-014699 was administered immediately after administering temozolomide. […] Tumour growth delay (TGD) is defined as the time to RTV4 in drug-treated mice compared with the time to RTV4 in control (vehicle alone) mice. Median tumour volume is shown, rather than the mean, as this is generally accepted as the most statistically reliable representation of the average growth rate of tumours in a small group of mice, if a normal distribution of tumour volumes cannot be assumed. Tumour growth delay was calculated as: median time to RTV4 in treated group-median time to RTV4 in control group.
# D283Med xenografts = assay: Tumour growth inhibition in vivo, D283Med xenografts; design: species or system mouse; settings: for Complete regressions: mice with regression/group
# From the text: as §2
# D384Med xenografts = assay: Tumour growth inhibition in vivo, D384Med xenografts; design: species or system mouse; settings: for Complete regressions: mice with regression/group, transient
# From the text: as §2
# [3] = Toxicity (body weight loss) in tumour-bearing mice; assay type: in vivo, mouse; settings: daily x5; TMZ 68 mg kg−1 p.o., AG-014699 1 mg kg−1 i.p.
# Procedure: CD-1 nude mice bearing palpable, established subcutaneous D425Med, D283Med and D384Med xenografts were treated with normal saline (control animals), temozolomide (68 mg kg^−1 per os (p.o.)) or AG-014699 (1 mg kg^−1 i.p.) alone or in combination, daily for 5 days (five mice per group). For drug combinations, AG-014699 was administered immediately after administering temozolomide. Tumour volumes, determined from two-dimensional calliper measurements and the equation a^2 × b/2 (where a is the […] of the tumour), were monitored for the experimental period (up to 100 days), and are presented for each group of mice as median relative tumour volume (RTV) values. Relative tumour volume 1 is the tumour volume on the initial day of treatment (day 0), and RTV4 is the tumour volume four times that on the initial day of treatment. Tumour growth delay (TGD) is defined as the time to RTV4 in drug-treated mice compared with the time to RTV4 in control (vehicle alone) mice. Median tumour volume is shown, rather than the mean, as this is generally accepted as the most statistically reliable representation of the average growth rate of tumours in a small group of mice, if a normal distribution of tumour volumes cannot be assumed. Tumour growth delay was calculated as: median time to RTV4 in treated group−median time to RTV4 in control group. Percentage enhancement was calculated as 100 × (TGD TMZ+AG-014699/TGD TMZ alone)−100 ([Calabrese et al, 2004]).
structure (smiles),measurement,setting,value
CNCc1ccc(-c2[nH]c3cc(F)cc4c3c2CCNC4=O)cc1 [AG-014447],Levels in the brain relative to plasma,[1]; 6 h after fourth daily dose 1 mg kg−1 i.p.,only marginally greater than plasma levels
same,Brain level relative to plasma level,[1]; 24 h after single dose 1 mg kg−1 i.p.,up to 10 fold
same,AUC in tumour,"[1]; day 1, 1 mg kg−1 i.p.",582.0 µmol·min/L
same,AUC in tumour,"[1]; day 4, 1 mg kg−1 i.p. daily",509.6 µmol·min/L
same,AUC in brain,"[1]; day 1, 1 mg kg−1 i.p.",37.0 µmol·min/L
same,AUC in plasma,"[1]; day 1, 1 mg kg−1 i.p.",26.4 µmol·min/L
same,Plasma half-life,"[1]; day 1, 1 mg kg−1 i.p.",4.98 h
same,AUC in brain,"[1]; day 4, 1 mg kg−1 i.p. daily",14.7 µmol·min/L
same,AUC in plasma,"[1]; day 4, 1 mg kg−1 i.p. daily",21.9 µmol·min/L
same,Plasma half-life,"[1]; day 4, 1 mg kg−1 i.p. daily",4.23 h
same,Plasma level of AG-014447 at 24 h,"[1]; first dose AG-014699 1 mg kg−1 i.p., LLOQ 1 ng ml−1",below the level of quantitation
same,c log D,[2],0.7
same,pKa,[2],9.6
Cn1nnc2c(C(N)=O)ncn2c1=O [temozolomide],Relative sensitivity to temozolomide (times more sensitive),"D425Med cells; D425Med compared with D384Med, in culture",~25 times
same,GI50,D425Med cells,9.3 ± 7.5 µM
same,GI50,"D425Med cells; Homo sapiens, D425 Med, 72 h",9 µM
same,Relative sensitivity to temozolomide (times less sensitive),D283Med cells; D283Med compared with D384Med,nearly four times less sensitive
same,Relative sensitivity to temozolomide (times less sensitive),D283Med cells; D283Med compared with D425Med,~100 times
same,GI50,"D283Med cells; Homo sapiens, D283 Med, 120 h, D283Med, temozolomide alone, XTT, 5 days",807 ± 239 µM
same,GI50,D384Med cells,220 ± 42 µM
same,Median nadir body weight (% starting weight),"D425Med xenografts; D425Med-bearing mice, daily x5, TMZ 68 mg kg−1 p.o., AG-014699 1 mg kg−1 i.p.",96 % starting weight
same,Complete tumour regressions (including not sustained),"D425Med xenografts; D425Med, daily x5",complete tumour regressions seen in all mice; also recorded: all mice showing complete tumour regressions
same,Median time to RTV4,"D425Med xenografts; D425Med, daily x5, TMZ 68 mg kg−1 p.o., AG-014699 1 mg kg−1 i.p.",>100 days
same,Complete regressions,"D425Med xenografts; D425Med, mice with regression/group, sustained for 100 days",two out of five
same,Tumour growth delay,"D425Med xenografts; D425Med, versus control time to RTV4",>81 days
same,Median nadir body weight (% starting weight),"D283Med xenografts; D283Med-bearing mice, daily x5, TMZ 68 mg kg−1 p.o., AG-014699 1 mg kg−1 i.p.",94 % starting weight
same,Median time to RTV4,"D283Med xenografts; D283Med, daily x5, TMZ 68 mg kg−1 p.o., AG-014699 1 mg kg−1 i.p.",9 days
same,Complete regressions,D283Med xenografts; D283Med,no regressions observed in any mice
same,Complete regressions,"D283Med xenografts; D283Med, listed as TMZ",0/5
same,Tumour growth delay,"D283Med xenografts; D283Med, versus control time to RTV4",2 days
same,Median nadir body weight (% starting weight),"D384Med xenografts; D384Med-bearing mice, daily x5, TMZ 68 mg kg−1 p.o., AG-014699 1 mg kg−1 i.p.",97 % starting weight
same,Median time to RTV4,"D384Med xenografts; D384Med, daily x5, TMZ 68 mg kg−1 p.o., AG-014699 1 mg kg−1 i.p.",44.5 days
same,Complete regressions,D384Med xenografts; D384Med,one transient complete response
same,Complete regressions,"D384Med xenografts; D384Med, listed as TMZ",1/5
same,Tumour growth delay,"D384Med xenografts; D384Med, versus control time to RTV4",28.5 days
same,Body weight loss,[3],5±4%
